Experimental data from patent US20230257374A1, “NOVEL KRAS G12C PROTEIN INHIBITOR, PREPARATION METHOD THEREFOR, AND USE THEREOF” (INNOVENT BIOLOGICS (SUZHOU) CO., LTD., priority 2019, published 2023).

Experiments:
[1] = system: H1373 cell line (K-RAS G12C); assay: cells; format: cell-based; settings: for IC50: Homo sapiens, NCI-H1373, 96 h, 3D culture, CellTiter-Glo 3D, read on day 4, read-out: H1373 (K-RAS G12C) IC50; for Selectivity (fold number of mutant vs. wild type): PC-9 IC50 vs. H1373 IC50
Procedure: (§1) a) On day 1, seed cells were placed in T75 a flask. b) On day 3, the medium was taken out and washed once with DPBS. c) Cells were trypsinized with 2 mL TrypLE™ Express enzyme at room temperature (RT) or 37° C. until cells detached. d) 5 mL of fresh medium was added to suspend the cells, and then the suspension was centrifuged at 1000 rpm and room temperature for 5 min. e) The supernatant was discarded, and the cells were resuspended in 5 mL of fresh medium and counted using Countess™ H. f) The cells were seeded back into the T75 flask for further culture or placed into an assay plate for 3D cell proliferation assay.
(§2) The cells were seeded at a density of 600 cells/well in a 384-well plate with 40 μL of medium per well and a final DMSO concentration of 0.5%. b) On day 4, a 3D CTG reagent was added to each well, followed by shaking at room temperature for 1 h. c) The signals were recorded using Envision.
(§3) a) Robustness was examined using 0.5% DMSO and data of blank control medium: H=mean (DMSO); L=mean (medium); SD (H)=STDEV (DMSO); SD (L)=STDEV (medium);
(§4) Y=peak valley value+(peak top value−peak valley value)/(1+10^((Log IC50−X)×HillSlope));
(§5) X: logarithm of compound concentration; Y: percent inhibition (% inhibition); Peak top and peak valley values: the plateau period units are the same as Y; log IC50: the same logarithmic unit as X; HillSlope: slope coefficient or Hill slope.

[2] = system: MIA PaCa-2 cell line (K-RAS G12C); assay: cells; format: cell-based; settings: for IC50: Homo sapiens, MIA PaCa-2, 96 h, 3D culture, CellTiter-Glo 3D, read on day 4, read-out: MIA PaCa-2 (K-RAS G12C) IC50; for Selectivity (fold number of mutant vs. wild type): PC-9 IC50 vs. MIA PaCa-2 IC50
Procedure: as §1, §2, §3, §4, §5

[3] = system: PC-9 cell line (K-RAS wild type); assay: cells; format: cell-based; settings: Homo sapiens, PC-9, 96 h; 3D culture, CellTiter-Glo 3D, read on day 4
Procedure: as §1, §2, §3, §4, §5

in vitro = settings: microsomes, pH 7.4
[4] = system: NCI-H358 tumor (K-RAS G12C mutation); format: in vivo, BALB/c nude mice; settings: for Day 0 Tumor volume (mm^3) Vaverage ± SEM: Day 0 (at grouping, before administration), 15 mg/kg PO QD group; for Day 21 Tumor volume (mm^3) Vaverage ± SEM / Tumor inhibition rate TGI (%) / Tumor regression: Day 21, 15 mg/kg PO QD; for Tumor regression: animals with regression / group of 8; for Day 0 Body weight (g) Waverage ± SEM: mouse, in vivo, po, 15 mg/kg
Procedure: The cells were digested with trypsin-EDTA twice a week for passaging as per conventional practice. When the cell saturation reached 80%-90% and a required amount was achieved, the cells were collected and counted for later use. […] 5% DMSO/5% Solutol/90% water was used as a blank control. 3) Tumor inoculation and drug administration: BALB/c nude mice, female, 6-8 weeks old, weighing 18-20 g. The experiment started after 3-7 days of adaptive feeding. 0.1 mL of NCI-H358 cells (5×10^6 cells) were inoculated subcutaneously on the right back of each mouse. The mice were grouped for administration when the average tumor volume reached approximately 150 mm^3. The animals were weighed before administration and the tumor volume was measured. Grouping was randomly performed according to the tumor volume.
Animals were monitored daily for health and death, and routine examinations include observation of the effect of tumor growth and drug treatment on the daily performance of the animals, such as behavioral activities, food and water intake, weight changes (measured once every other day), appearance, or other abnormal conditions. Animal mortality and side effects within each group were recorded based on the number of animals in the group.
Tumor diameters were measured 2-3 times weekly using a vernier caliper.
The tumor volume was calculated as follows: […]
where a and b represent the long and short diameters of the tumor, respectively.
The anti-tumor therapeutic effect of the compound was evaluated by tumor growth inhibition rate TGI (%) or relative tumor proliferation rate T/C (%).
TGI (%) was calculated as follows: […]
T/C (%) was calculated as follows: […]
where TRTV represents the relative tumor volume of the treatment group; CRTV represents the relative tumor volume of the solvent control group.
Based on the results of tumor measurement, the relative tumor volume (RTV) was calculated as follows: […]
where V0 represents the average tumor volume measured at the time of grouping and administration (i.e., d0), Vt represents the average tumor volume in a certain measurement, and TRTV and CRTV take the data on the same day.
After the completion of the experiment, tumors were weighed, and the percentage of Tweight/Cweight was calculated, where Tweight and Cweight represent the tumor weights of the treatment group and the solvent control group, respectively.
Data calculation and analysis: T test was employed for comparison between two groups. One-way ANOVA was employed for comparison between three or more groups. If there is a significant difference in F-values, multiple comparisons should be made after ANOVA analysis. All data analyses were performed with SPSS 17.0. p<0.05 was defined as a significant difference.

[5] = Stability test in human plasma; settings: for Remaining percentage (%) 0 min / Remaining percentage (%) 30 min / Remaining percentage (%) 60 min / Remaining percentage (%) 120 min / Remaining percentage (%) 180 min / Remaining percentage (%) 240 min: human plasma, 37° C.; for half-life at 5 μM: human, plasma
Procedure: To examine the stability of the test compounds in plasma, representative compounds were selected for evaluation.
Preparation of stock solution: a test compound was dissolved in DMSO to prepare a 1 mM stock solution for later use; Propantheline Bromide was dissolved in acetonitrile to prepare a 1 mM stock solution as a positive control for later use.
To each well was added 2 μL of the stock solution of the test compound and the stock solution of the positive control such that the final concentrations were 5 KM and the concentration of the organic solvent was 0.5%. Each compound was prepared in duplicate, followed by incubation at 37° C. 50 μL of samples were taken from the reaction samples in equal amounts at 0, 30, 60, 120, 180 and 240 minutes, and 450 μL of cold acetonitrile containing an internal standard was added to terminate the reaction. […] 100 μL of the supernatants were transferred to a new plate, dilute with ultra-pure water, and analyzed by LC-MS/MS.
Data results were calculated according to peak area ratios.
The percentage of remaining compound for each time point was calculated as follows:
Remaining percentagemin(%)=peak area ratiosmin/peak area ratiomin×100%
where peak area ratios represents the peak area ratio of the test compound to the internal standard compound at t min; peak area ratiomin represents the peak area ratio of the test compound to the internal standard compound at 0 min (initial).

| Compound | IC50 [1] | Selectivity (fold number of mutant vs. wild type) [1] | IC50 [2] | Selectivity (fold number of mutant vs. wild type) [2] | IC50 [3] | half-life at 1 μM (in vitro; ICR (CD-1), mouse) | microsomal CLint at 1 μM (in vitro; ICR (CD-1), mouse) | half-life at 1 μM (in vitro; human) | microsomal CLint at 1 μM (in vitro; human) | Day 0 Tumor volume (mm^3) Vaverage ± SEM [4] | Day 21 Tumor volume (mm^3) Vaverage ± SEM [4] | Tumor inhibition rate TGI (%) [4] | Tumor regression [4] | Day 0 Body weight (g) Waverage ± SEM [4] | Remaining percentage (%) 0 min [5] | Remaining percentage (%) 30 min [5] | Remaining percentage (%) 60 min [5] | Remaining percentage (%) 120 min [5] | Remaining percentage (%) 180 min [5] | Remaining percentage (%) 240 min [5] | other results |
| --- | --- | --- | --- | --- | --- | --- | --- | --- | --- | --- | --- | --- | --- | --- | --- | --- | --- | --- | --- | --- | --- |
| [2H]C([2H])([2H])c1cccc2cccc(N3CCc4c(nc(OC[C@@H]5CCCN5C)nc4N4CCN(C(=O)C=C)[C@@H](CC#N)C4)C3)c12 [Compound 1, 2-((S)-1-acryloyl-4-(7-(8-(methyl-d3)naphthalen-1-yl)-2-(((S)-1-methylpyrrolidin-2-yl)methoxy)-5,6,7,8-tetrahydropyrido[3,4-d]pyrimidin-4-yl)piperazin-2-yl)acetonitrile] | 0.68 nM | 7074 fold | 0.49 nM | 9816 fold | 4810 nM | 20.9 min | 66.5 µL/min/mg | 29.3 min | 47.3 µL/min/mg | 150 ± 10 mm^3 | 153 ± 14 mm^3 | 99.5% | 3/8 | 22.5 ± 0.5 g | 100.00% | 92.80% | 76.27% | 58.94% | 39.27% | 25.75% | half-life at 5 μM [5]: 122 min |
| [2H]C([2H])([2H])N1CCC[C@H]1COc1nc2c(c(N3CCN(C(=O)C=C)[C@@H](CC#N)C3)n1)CCN(c1cccc3cccc(C)c13)C2 [Compound 42, 2-((S)-1-acryloyl-4-(7-(8-methylnaphthalen-1-yl)-2-(((S)-1-(methyl-d3)pyrrolidin-2-yl)methoxy)-5,6,7,8-tetrahydropyrido[3,4-d]pyrimidin-4-yl)piperazin-2-yl)acetonitrile] | 0.26 nM | 9115 fold | 0.51 nM | 4647 fold | 2370 nM | 22.8 min | 60.9 µL/min/mg | 27.2 min | 51 µL/min/mg | 150 ± 9 mm^3 | 151 ± 18 mm^3 | 99.8% | 4/8 | 22.8 ± 0.6 g | 100.00% | 90.36% | 77.31% | 57.19% | 36.19% | 27.49% | half-life at 5 μM [5]: 123 min |
